Source: ChEMBL document CHEMBL4325859, “Research advances on anticancer activities of matrine and its derivatives: An updated overview” (Eur J Med Chem, 2019)
Converted amounts (≈) assume the structure as drawn.

Assays:
[1] = tested on: RPMI-8226; assay: Growth inhibition of human RPMI8226 cells at 1000 mg/L after 48 hrs by MTT assay relative to control; format: functional; settings: RPMI-8226, 48 h, read-out: GI
[2] = Antiproliferative activity against human 95-D cells at 1.5 g/L after 12 to 48 hrs by MTT assay relative to control; format: functional
[3] = tested on: BXPC-3; assay: Induction of apoptosis in human BxPC3 cells at 1.25 mg/ml by flow cytometry (reference value: 2.81%); format: functional
[4] = tested on: HT-29; assay: Synergistic growth inhibition of human HT-29 cells at 0.5 mg/ml cotreated with 2.5 ug/ml irinotecan by MTT assay relative to control; format: functional
[5] = tested on: BXPC-3; assay: Induction of apoptosis in human BxPC3 cells at 0.25 mg/ml by flow cytometry (reference value: 2.81%); format: functional
[6] = tested on: HepG2; assay: Induction of apoptosis in human HepG2 cells at 2 mg/ml by Annexin V-FITC/propidium iodide staining based flow cytometry (reference value: 0.14%); format: functional
[7] = tested on: HepG2; assay: Antiproliferative activity against human HepG2 cells by MTT assay; format: functional, cell-based
[8] = tested on: U2OS; assay: Growth inhibition of human U2OS cells after 48 hrs by MTT assay; format: functional, cell-based
[9] = tested on: MG-63; assay: Growth inhibition of human MG63 cells after 48 hrs by MTT assay; format: functional, cell-based; settings: MG-63, 48 h
[10] = tested on: SW480; assay: Antitumor activity against human SW480 cells xenografted in Balb/c mouse assessed as tumor growth inhibition at 30 mg/kg, ip everyday relative to control; format: functional; settings: read-out: TGI
[11] = tested on: D341 cell line; assay: Growth inhibition of human D341 cells at 2 mg/ml after 24 hrs by CCK8 assay relative to control; format: functional; settings: D341, 24 h, read-out: GI
[12] = tested on: U-937; assay: Induction of apoptosis in human U937 cells after 24 hrs by Annexin V-FITC/propidium iodide staining based flow cytometry relative to control; format: functional
[13] = tested on: HeLa; assay: Induction of apoptosis in human HeLa cells at 50 ug/ml after 48 hrs by Annexin V-FITC/propidium iodide staining based flow cytometry relative to control; format: functional
[14] = tested on: RD; assay: Induction of apoptosis in human RD cells at 0.5 mg/ml after 24 hrs by Annexin V-FITC/propidium iodide staining based flow cytometry relative to control; format: functional
[15] = Growth inhibition of human GRC1 cells at 0.5 g/L after 24 hrs by MTT assay relative to control; format: functional; settings: read-out: GI
[16] = tested on: RPMI-8226; assay: Growth inhibition of human RPMI8226 cells at 1500 mg/L after 48 hrs by MTT assay relative to control; format: functional; settings: RPMI-8226, 48 h, read-out: GI
[17] = tested on: HepG2; assay: Induction of apoptosis in human HepG2 cells at 1 mg/ml by Annexin V-FITC/propidium iodide staining based flow cytometry (reference value: 0.14%); format: functional
[18] = tested on: RPMI-8226; assay: Antiproliferative activity against human RPMI8226 cells after 24 hrs by MTT assay; format: functional, cell-based; settings: RPMI-8226, 24 h
[19] = tested on: M21; assay: Induction of apoptosis in human M21 cells at 0.8 mg/ml after 48 hrs by Annexin V-FITC/propidium iodide staining based flow cytometry relative to control; format: functional
[20] = tested on: HOS; assay: Growth inhibition of human HOS cells at 0.8 mg/ml after 48 hrs by MTT assay relative to control; format: functional; settings: read-out: GI
[21] = tested on: D341 cell line; assay: Growth inhibition of human D341 cells at 0.5 mg/ml after 72 hrs by CCK8 assay relative to control; format: functional; settings: D341, 72 h, read-out: GI
[22] = Antiproliferative activity against human GBC-SD cells after 48 hrs by MTT assay; format: functional, cell-based
[23] = tested on: RPMI-8226; assay: Induction of apoptosis in human RPMI8226 cells at 1000 mg/L after 48 hrs by Annexin V/propidium iodide staining based flow cytometry (reference value: 3.02 +/- 1.19%); format: functional
[24] = tested on: CCRF-CEM; assay: Antiproliferative activity against human CCRF-CEM cells after 24 hrs by WST1 assay; format: functional, cell-based
[25] = Growth inhibition of human GRC1 cells at 0.3 g/L after 96 hrs by MTT assay relative to control; format: functional; settings: read-out: GI
[26] = tested on: KYSE-150 cell line; assay: Antiproliferative activity against human KYSE-150 cells assessed as cell viability at 2.5 mg/ml after 24 hrs by MTT assay relative to control; format: functional; settings: KYSE-150, 24 h, read-out: Activity
[27] = tested on: UMR108; assay: Growth inhibition of rat UMR108 cells assessed as cell proliferation at 1.5 mg/ml after 48 hrs by MTT assay (reference value: 0.404 +/- 0.008%); format: functional; settings: UMR108, 48 h, read-out: Activity
[28] = tested on: U-266; assay: Induction of apoptosis in human U266 cells at 2 g/L after 48 hrs by Annexin V-FITC/propidium iodide staining based flow cytometry (Rvb < 3%); format: functional
[29] = tested on: KYSE-150 cell line; assay: Antiproliferative activity against human KYSE-150 cells assessed as cell viability at 3 mg/ml after 24 hrs by MTT assay relative to control; format: functional; settings: KYSE-150, 24 h, read-out: Activity
[30] = Growth inhibition of human GRC1 cells at 1.5 g/L after 96 hrs by MTT assay relative to control; format: functional; settings: read-out: GI
[31] = tested on: HT-29; assay: Growth inhibition of human HT-29 cells at 32 ml/L after 24 hrs by MTT assay relative to control; format: functional
[32] = tested on: MCF7; assay: Antiproliferative activity against human MCF7 cells after 24 hrs relative to control; format: functional
[33] = Growth inhibition of human GRC1 cells at 0.3 g/L after 72 hrs by MTT assay relative to control; format: functional; settings: read-out: GI
[34] = tested on: SMMC-7721; assay: Antiproliferative activity against human SMMC7721 cells at 100 ug/ml after 72 hrs by MTT assay relative to control; format: functional
[35] = tested on: KYSE-150 cell line; assay: Antiproliferative activity against human KYSE-150 cells after 24 hrs by MTT assay; format: functional, cell-based; settings: KYSE-150, 24 h
[36] = tested on: HT-29; assay: Synergistic growth inhibition of human HT-29 cells at 0.25 mg/ml cotreated with 1.25 ug/ml irinotecan by MTT assay relative to control; format: functional
[37] = tested on: HT-29; assay: Growth inhibition of human HT-29 cells at 2 ml/L after 24 hrs by MTT assay relative to control; format: functional
[38] = tested on: Ca-Ski; assay: Antiproliferative activity against human CaSki cells after 48 hrs by CCK8 assay; format: functional, cell-based
[39] = tested on: C-33-A; assay: Antiproliferative activity against human C33A cells after 48 hrs by CCK8 assay; format: functional, cell-based
[40] = tested on: BXPC-3; assay: Antiproliferative activity against human BxPC3 cells after 72 hrs by MTT assay; format: functional, cell-based; settings: BXPC-3, 72 h
[41] = tested on: PANC-1; assay: Antiproliferative activity against human PANC1 cells by MTT assay; format: functional, cell-based
[42] = tested on: PANC-1; assay: Induction of apoptosis in human PANC1 cells at 1.25 mg/ml by flow cytometry (reference value: 4.13%); format: functional
[43] = tested on: SGC-7901; assay: Induction of apoptosis in human SGC7901 cells at […] after 48 hrs by propidium iodide staining based flow cytometry (reference value: 3.54 +/- 0.47%); format: functional
[44] = tested on: KYSE-150 cell line; assay: Antiproliferative activity against human KYSE-150 cells assessed as cell viability at 1 mg/ml after 24 hrs by MTT assay relative to control; format: functional; settings: KYSE-150, 24 h, read-out: Activity

## O=C1CCC[C@@H]2[C@H]3CCCN4CCC[C@@H](CN12)[C@@H]34 [MATRINE]
[1]
  inhibition of growth at 1000 µg/mL: 30.4%
[2]
  Activity: 30%
[3]
  Activity: 33.67%
[4]
  growth inhibition (GI): 57.25%
[5]
  Activity: 9.9%
[6]
  Activity: 38.8%
[7]
  IC50: 8.07 mM
[8]
  IC50: 7.25 mM
[9]
  IC50: 7.05 mM
[10]
  inhibition in vivo at 30 mg/kg: 13.7%
[11]
  inhibition of growth at 2000 µg/mL: 38%
[12]
  Activity: 37.2%
[13]
  Activity: 19.53%
[14]
  Activity: 22.8%
[15]
  inhibition of growth at 500 µg/mL: 11.5%
[16]
  inhibition of growth at 1500 µg/mL: 39.4%
[17]
  Activity: 34.36%
[18]
  IC50: 2250 µg/mL (≈ 9.06 mM)
[19]
  Activity: 40.3%
[20]
  inhibition of growth at 800 µg/mL: 10%
[21]
  inhibition of growth at 500 µg/mL: 12.7%
[22]
  IC50: 2 mM
[23]
  Activity: 18.48%
[24]
  IC50: 11.7 mM
[25]
  inhibition of growth at 300 µg/mL: 18.4%
[26]
  viability at 2500 µg/mL: 40.4%
[27]
  growth at 1500 µg/mL: 0.205%
[28]
  Activity: 71.05%
[29]
  viability at 3000 µg/mL: 29.6%
[30]
  inhibition of growth at 1500 µg/mL: 60.2%
[31]
  growth inhibition (GI): 71.62%
[32]
  Activity: 6.01 - 37.01%
[33]
  inhibition of growth at 300 µg/mL: 14.9%
[34]
  Activity: 55.1%
[35]
  IC50: 7.82 mM
[36]
  growth inhibition (GI): 31.08%
[37]
  growth inhibition (GI): 9.2%
[38]
  IC50: 5.8 mM
[39]
  IC50: 5.92 mM
[40]
  IC50: 2.94 mM
[41]
  IC50: 0.0286 mM
[42]
  Activity: 42.55%
[43]
  Activity: 34.59%
[44]
  viability at 1000 µg/mL: 69.8%
